According to patent publication US3995021A, “Antigens of 5,5'alkylphenyl barbituric acids and related hydantoin compounds” (Biological Developments, Inc., priority 1975, dated 1976):

test system: antibodies raised with the product of Example 1; assay: Radioimmune assay: cross-reactivity of other barbituric acids (competitive inhibition of tritiated phenobarbital binding to antibody); conditions: at 50% inhibition, 4° C, 2 hours

SMILES	Percent Cross-Reactivity [%]
CCC1(CCC(C)C)C(=O)NC(=O)NC1=O [Amobarbital]	0.6
CCCC(C)C1(CC)C(=O)NC(=O)NC1=O (stereo not shown) [Pentobarbital]	2.2
C=CCC1(C(C)CCC)C(=O)NC(=O)NC1=O (stereo not shown) [Secobarbital]	1.8
CCCC(C)C1(CC)C(=O)NC(=S)NC1=O (stereo not shown) [Thiopental]	0.2
